Assay results taken from patent US8614236B2 (University of Washington, priority 2006, dated 2013).

Test system: unanesthetized dogs
Assay: Effect of inhaled acetazolamide in unanesthetized dogs during hypoxia (vs iv and oral)
Format: in vivo, dog
[1] = inhaled 750 mg after 1 h of normoxia, hypoxia 2nd h
[2] = inhaled 750 mg after 1 h of normoxia, hypoxia 3rd h
[3] = inhaled 750 mg after 1 h of normoxia, normoxia 1st h
[4] = iv 2 mg/kg bolus + 2 mg/kg/h, hypoxia 2nd h
[5] = iv 2 mg/kg bolus + 2 mg/kg/h, hypoxia 3rd h
[6] = iv 2 mg/kg bolus + 2 mg/kg/h, normoxia 1st h
[7] = oral 5 mg/kg -12 h and -1 h, hypoxia 2nd h
[8] = oral 5 mg/kg -12 h and -1 h, hypoxia 3rd h
[9] = oral 5 mg/kg -12 h and -1 h, normoxia 1st h

CC(=O)Nc1nnc(S(N)(=O)=O)s1 [AZ, acetazolamide]
BEa [1]: -5.2 ± 0.6 mM
CO [1]: 2.3 ± 0.2 L/min
CVP [1]: 2.5 ± 0.3 cmH2O
GFR [1]: 3.7 ± 0.3 mL·min
HCO3a [1]: 17.1 ± 0.6 mM
HR [1]: 86 ± 6 beats/min
MAP [1]: 105 ± 5 mmHg
MPAP [1]: 15 ± 1 mmHg
PCWP [1]: 3.9 ± 0.4 cmH2O
PVR [1]: 395 ± 29 dyn s^−1 cm
PaCO2 [1]: 26 ± 1 Torr
PaO2 [1]: 39 ± 1 Torr
UNaV [1]: 8.0 ± 1.3 µmol·min
UV [1]: 99 ± 16 μ min^−1 kg^−1
VE [1]: 5.5 ± 0.5 L/min
BEa [2]: -5.7 ± 0.7 mM
CO [2]: 2.5 ± 0.1 L/min
CVP [2]: 2.1 ± 0.2 cmH2O
GFR [2]: 3.6 ± 0.3 mL·min
HCO3a [2]: 16.4 ± 0.5 mM
HR [2]: 100 ± 8 beats/min
MAP [2]: 105 ± 5 mmHg
MPAP [2]: 15 ± 1 mmHg
PCWP [2]: 3.6 ± 0.2 cmH2O
PVR [2]: 388 ± 30 dyn s^−1 cm
PaCO2 [2]: 25 ± 1 Torr
PaO2 [2]: 36 ± 1 Torr
UNaV [2]: 5.1 ± 0.7 µmol·min
UV [2]: 81 ± 15 μ min^−1 kg^−1
VE [2]: 5.7 ± 0.4 L/min
BEa [3]: -3.9 ± 0.6 mM
CO [3]: 2.5 ± 0.1 L/min
CVP [3]: 2.8 ± 0.3 cmH2O
GFR [3]: 4.0 ± 0.4 mL·min
HCO3a [3]: 20.2 ± 0.5 mM
HR [3]: 85 ± 5 beats/min
MAP [3]: 92 ± 4 mmHg
MPAP [3]: 13 ± 1 mmHg
PCWP [3]: 4.3 ± 0.4 cmH2O
PVR [3]: 298 ± 21 dyn s^−1 cm
PaCO2 [3]: 36 ± 1 Torr
PaO2 [3]: 101 ± 2 Torr
UNaV [3]: 0.4 ± 0.1 µmol·min
UV [3]: 33 ± 8 μ min^−1 kg^−1
VE [3]: 3.2 ± 0.2 L/min
pulmonary vascular response to hypoxia (inhaled, 12% oxygen for two hours): successful in reducing
BEa [4]: -4.6 ± 0.4 mM
CO [4]: 3.0 ± 0.4 L/min
CVP [4]: 2.2 ± 0.3 cmH2O
GFR [4]: 3.4 ± 0.3 mL·min
HCO3a [4]: 18.5 ± 0.5 mM
HR [4]: 103 ± 6 beats/min
MAP [4]: 102 ± 8 mmHg
MPAP [4]: 15 ± 1 mmHg
PCWP [4]: 3.5 ± 0.3 cmH2O
PVR [4]: 312 ± 36 dyn s^−1 cm
PaCO2 [4]: 30 ± 1 Torr
PaO2 [4]: 37 ± 1 Torr
UNaV [4]: 4.0 ± 0.6 µmol·min
UV [4]: 135 ± 27 μ min^−1 kg^−1
VE [4]: 6.5 ± 0.5 L/min
BEa [5]: -6.1 ± 0.6 mM
CO [5]: 2.9 ± 0.5 L/min
CVP [5]: 2.3 ± 0.4 cmH2O
GFR [5]: 3.8 ± 0.3 mL·min
HCO3a [5]: 17.1 ± 0.5 mM
HR [5]: 106 ± 7 beats/min
MAP [5]: 103 ± 7 mmHg
MPAP [5]: 14 ± 1 mmHg
PCWP [5]: 3.7 ± 0.3 cmH2O
PVR [5]: 305 ± 26 dyn s^−1 cm
PaCO2 [5]: 27 ± 1 Torr
PaO2 [5]: 38 ± 1 Torr
UNaV [5]: 5.4 ± 1.2 µmol·min
UV [5]: 68 ± 12 μ min^−1 kg^−1
VE [5]: 6.9 ± 0.5 L/min
BEa [6]: -4.0 ± 0.5 mM
CO [6]: 2.6 ± 0.2 L/min
CVP [6]: 1.8 ± 0.3 cmH2O
GFR [6]: 3.5 ± 0.3 mL·min
HCO3a [6]: 20.2 ± 0.4 mM
HR [6]: 74 ± 4 beats/min
MAP [6]: 95 ± 5 mmHg
MPAP [6]: 13 ± 1 mmHg
PCWP [6]: 3.8 ± 0.5 cmH2O
PVR [6]: 283 ± 37 dyn s^−1 cm
PaCO2 [6]: 34 ± 1 Torr
PaO2 [6]: 107 ± 3 Torr
UNaV [6]: 3.8 ± 0.6 µmol·min
UV [6]: 102 ± 12 μ min^−1 kg^−1
VE [6]: 4.1 ± 0.4 L/min
BEa [7]: -6.3 ± 0.6 mM
CO [7]: 2.7 ± 0.2 L/min
CVP [7]: 1.9 ± 0.2 cmH2O
GFR [7]: 3.3 ± 0.2 mL·min
HCO3a [7]: 16.7 ± 0.6 mM
HR [7]: 109 ± 5 beats/min
MAP [7]: 106 ± 6 mmHg
MPAP [7]: 17 ± 1 mmHg
PCWP [7]: 3.5 ± 0.3 cmH2O
PVR [7]: 375 ± 33 dyn s^−1 cm
PaCO2 [7]: 28 ± 1 Torr
PaO2 [7]: 37 ± 1 Torr
UNaV [7]: 1.7 ± 0.5 µmol·min
UV [7]: 84 ± 15 μ min^−1 kg^−1
VE [7]: 6.6 ± 0.4 L/min
BEa [8]: -6.4 ± 0.4 mM
CO [8]: 2.3 ± 0.1 L/min
CVP [8]: 1.9 ± 0.2 cmH2O
GFR [8]: 3.3 ± 0.2 mL·min
HCO3a [8]: 16.1 ± 0.4 mM
HR [8]: 102 ± 7 beats/min
MAP [8]: 107 ± 6 mmHg
MPAP [8]: 17 ± 1 mmHg
PCWP [8]: 3.5 ± 0.3 cmH2O
PVR [8]: 431 ± 45 dyn s^−1 cm
PaCO2 [8]: 26 ± 1 Torr
PaO2 [8]: 37 ± 1 Torr
UNaV [8]: 1.5 ± 0.4 µmol·min
UV [8]: 55 ± 8 μ min^−1 kg^−1
VE [8]: 6.3 ± 0.2 L/min
BEa [9]: -6.5 ± 0.3 mM
CO [9]: 2.3 ± 0.2 L/min
CVP [9]: 2.3 ± 0.3 cmH2O
GFR [9]: 3.0 ± 0.2 mL·min
HCO3a [9]: 17.6 ± 0.3 mM
HR [9]: 85 ± 3 beats/min
MAP [9]: 95 ± 3 mmHg
MPAP [9]: 12 ± 1 mmHg
PCWP [9]: 3.9 ± 0.3 cmH2O
PVR [9]: 298 ± 27 dyn s^−1 cm
PaCO2 [9]: 32 ± 1 Torr
PaO2 [9]: 108 ± 2 Torr
UNaV [9]: 1.4 ± 0.6 µmol·min
UV [9]: 50 ± 9 μ min^−1 kg^−1
VE [9]: 4.6 ± 0.3 L/min
